Experimental data from patent US20230219942A1, “COMPOUNDS COMPRISING A THREE RING CORE AS PD-1/PD-L1 BLOCKERS” (RELIVE THERAPEUTICS INC., priority 2020, published 2023).
Read-outs that look alike come from different tables or passages of the source.

Key:
PD-1/PD-L1 interaction = target: T1, PD-1/PD-L1 interaction (Homo sapiens, UniProt Q9NZQ7); assay: Cisbio PD-1/PD-L1 Homogeneous Time-Resolved Fluorescence (HTRF) binding assay; settings: read-out: Reported IC50
T1 construct: Tag1 or Tag2 (undisclosed kit tag); purchased Cisbio
T1 sequence (Q9NZQ7 19-238 limits assumed): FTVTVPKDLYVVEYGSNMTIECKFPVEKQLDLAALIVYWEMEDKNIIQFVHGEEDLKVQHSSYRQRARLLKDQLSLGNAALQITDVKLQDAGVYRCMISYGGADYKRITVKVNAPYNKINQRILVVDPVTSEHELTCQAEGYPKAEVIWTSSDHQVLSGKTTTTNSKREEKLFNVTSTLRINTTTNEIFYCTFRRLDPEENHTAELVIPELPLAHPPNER
Text: The ability of compounds of the disclosure to inhibit the PD-1/PD-L1 interaction was investigated using a Cisbio PD-1/PD-L1 Homogeneous Time-Resolved Fluorescence (HTRF) binding assay (https://ca.cisbio.net/human-pd1-pd-l1-biochemical-binding-assay-44666).
With the assay, the interaction between PD-L1 and PD-1 is detected by using anti-Tag1 labeled with Europium (HTRF donor) and anti-Tag2 labeled with XL665 (HTRF acceptor). When the donor and acceptor antibodies are brought into close proximity due to PD-L1 and PD-1 binding, excitation of the donor antibody triggers fluorescence resonance energy transfer (FRET) towards the acceptor antibody, which in turn emits specifically at 665 nm. This specific signal is directly proportional to the extent of PD-1/PD-L1 interaction. Thus, a compound blocking the PD-1/PD-L1 interaction causes a reduction in the HTRF signal.
The assay was carried out in accordance with the product insert.

PD-1 = PD-1 inhibition assay, literature value; read-out: IC50 previously reported; cited from earlier work
PD-1/PD-L1 = PD-1/PD-L1 (Homo sapiens, UniProt Q9NZQ7); settings: Table 11; known small molecule PD-1/PD-L1 blockers; cited from earlier work
Chain of PD-1/PD-L1 (Q9NZQ7 19-290): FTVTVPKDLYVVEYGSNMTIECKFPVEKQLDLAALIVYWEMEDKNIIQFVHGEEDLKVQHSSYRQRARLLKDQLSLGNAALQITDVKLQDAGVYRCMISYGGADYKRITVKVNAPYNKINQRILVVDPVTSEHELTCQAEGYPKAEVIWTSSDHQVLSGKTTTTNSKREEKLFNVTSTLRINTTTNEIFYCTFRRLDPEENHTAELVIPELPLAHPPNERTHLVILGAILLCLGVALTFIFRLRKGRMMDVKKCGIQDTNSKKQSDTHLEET

[1] = Table 10, * n = 7, median, P1 and P2 are different isomers
[2] = Table 10, same result in μM, P1 and P2 are different isomers

For COc1cc(C(=O)N2CCN(Cc3nsc(NC[C@@H]4CCCN4Cc4ccc(C(F)(F)F)cc4)n3)CC2)cc(OC)c1OC [Compound B317], the IC50 (PD-1/PD-L1 interaction; [1]) was 0.018 µM and the IC50 (PD-1/PD-L1 interaction; [2]) was 0.018 µM.

Molecule COc1cc(C(=O)N2CCN(Cc3csc(NC[C@@H]4CCCN4Cc4ccc(Br)c(F)c4)n3)CC2)cc(OC)c1OC [Compound B318] has an IC50 (PD-1/PD-L1 interaction; Table 9) of 0.092 µM and an IC50 (PD-1/PD-L1 interaction; Table 9, same result in μM) of 0.092 µM.

Molecule COc1cc(C(=O)N2CCN(Cc3nsc(NC[C@@H]4CCCN4Cc4ccc(Br)c(F)c4)n3)CC2)cc(OC)c1OC [Compound B319] has an IC50 (PD-1/PD-L1 interaction; [1]) of 0.015 µM and an IC50 (PD-1/PD-L1 interaction; [2]) of 0.015 µM.

For Cc1ccc(C(=O)N2CCN(Cc3csc(NC[C@@H]4CCCN4Cc4ccc(Br)cc4)n3)CC2)cc1 [Compound B408], the IC50 (PD-1/PD-L1 interaction; Table 9) was over 50 µM and the IC50 (PD-1/PD-L1 interaction; Table 9, same result in μM) was over 50 µM.

Cc1ccc(C(=O)N2CCN(Cc3nsc(NC[C@@H]4CCCN4Cc4ccc(Br)cc4)n3)CC2)cc1 [Compound B409] showed an IC50 (PD-1/PD-L1 interaction; [1]) of 0.65 µM and an IC50 (PD-1/PD-L1 interaction; [2]) of 0.65 µM.

With O=C(c1ccc(Cl)cc1)N1CCN(Cc2csc(NCC3CCCN3Cc3ccc(Br)cc3)n2)CC1 (stereo not shown) [Compound B410] the IC50 (PD-1/PD-L1 interaction; Table 9) was over 5 µM and the IC50 (PD-1/PD-L1 interaction; Table 9, same result in μM) was over 5 µM.

O=C(c1ccc(Cl)cc1)N1CCN(Cc2nsc(NC[C@@H]3CCCN3Cc3ccc(Br)cc3)n2)CC1 [Compound B411] showed an IC50 (PD-1/PD-L1 interaction; [1]) of 1.02 µM and an IC50 (PD-1/PD-L1 interaction; [2]) of 1 µM.

O=C(c1ccccc1)N1CCN(Cc2nsc(NC[C@@H]3CCCN3Cc3ccc(Br)cc3)n2)CC1 [Compound B412] gave an IC50 (PD-1/PD-L1 interaction; [1]) of 4.4 µM and an IC50 (PD-1/PD-L1 interaction; [2]) of 4.4 µM.

O=C(c1ccc(=O)[nH]c1)N1CCN(Cc2nsc(NC[C@@H]3CCCN3Cc3ccc(Br)cc3)n2)CC1 [Compound B413] showed an IC50 (PD-1/PD-L1 interaction; [1]) of 0.44 µM and an IC50 (PD-1/PD-L1 interaction; [2]) of 0.44 µM.

Cn1cc(C(=O)N2CCN(Cc3csc(NC[C@@H]4CCCN4Cc4ccc(Br)cc4)n3)CC2)ccc1=O [Compound B414] gave an IC50 (PD-1/PD-L1 interaction; Table 9) of over 5 µM and an IC50 (PD-1/PD-L1 interaction; Table 9, same result in μM) of over 5 µM.

Cn1cc(C(=O)N2CCN(Cc3nsc(NC[C@@H]4CCCN4Cc4ccc(Br)cc4)n3)CC2)ccc1=O [Compound B415] showed an IC50 (PD-1/PD-L1 interaction; [1]) of 0.216 µM and an IC50 (PD-1/PD-L1 interaction; [2]) of 0.22 µM.

Work on COc1cc(C(=O)N2CCN(Cc3cc(NC[C@@H]4CCCN4Cc4ccc(Br)cc4)sn3)CC2)cc(OC)c1OC [Compound B708] yielded an IC50 (PD-1/PD-L1 interaction; [1]) of 0.028 µM and an IC50 (PD-1/PD-L1 interaction; [2]) of 0.028 µM.

COc1cc(C(=O)N2CCN(Cc3nccc(NC[C@@H]4CCCN4Cc4ccc(Br)cc4)n3)CC2)cc(OC)c1OC [Compound B709] showed an IC50 (PD-1/PD-L1 interaction; [1]) of 8 µM and an IC50 (PD-1/PD-L1 interaction; [2]) of 8 µM.

Work on COc1cc(C(=O)N2CCN(Cc3nsc(NC[C@@H]4CCCCN4Cc4ccc(Br)cc4)n3)CC2)cc(OC)c1OC [Compound B710] yielded an IC50 (PD-1/PD-L1 interaction; [1]) of 0.096 µM and an IC50 (PD-1/PD-L1 interaction; [2]) of 0.096 µM.

COc1cc(C(=O)N2CCN(Cc3nsc(NC[C@@H]4C[C@@H](O)CN4Cc4ccc(Br)cc4)n3)CC2)cc(OC)c1OC [Compound B802] showed an IC50 (PD-1/PD-L1 interaction; [1]) of 0.012 µM and an IC50 (PD-1/PD-L1 interaction; [2]) of 0.012 µM.

Work on COc1cc(C(=O)N2C[C@H](C)N(Cc3nsc(NC[C@@H]4CCCN4Cc4ccc(Br)cc4)n3)C[C@@H]2C)cc(OC)c1OC [Compound B804] yielded an IC50 (PD-1/PD-L1 interaction; [1]) of 0.021 µM and an IC50 (PD-1/PD-L1 interaction; [2]) of 0.021 µM.

Work on COc1cc(C(=O)N2CCN([C@H](C)c3nsc(NC[C@@H]4CCCN4Cc4ccc(Br)cc4)n3)CC2)cc(OC)c1OC [Compound B805] yielded an IC50 (PD-1/PD-L1 interaction; [1]) of 0.014 µM and an IC50 (PD-1/PD-L1 interaction; [2]) of 0.014 µM.

COc1cc(C(=O)N2CCN([C@@H](C)c3nsc(NC[C@@H]4CCCN4Cc4ccc(Br)cc4)n3)CC2)cc(OC)c1OC [Compound B806] showed an IC50 (PD-1/PD-L1 interaction; [1]) of 0.012 µM and an IC50 (PD-1/PD-L1 interaction; [2]) of 0.012 µM.

Molecule COc1cc(C(=O)N2CCN(Cc3nsc(NC[C@@H]4C[C@@H](O)CN4[C@@H](C)c4ccc(Br)cc4)n3)CC2)cc(OC)c1OC [Compound B910] has an IC50 (PD-1/PD-L1 interaction; [1]) of 0.044 µM and an IC50 (PD-1/PD-L1 interaction; [2]) of 0.044 µM.

With COc1cc(C(=O)N2C[C@H](C)N(Cc3nsc(NC[C@@H]4C[C@@H](O)CN4Cc4ccc(Br)cc4)n3)C[C@@H]2C)cc(OC)c1OC [Compound B911] the IC50 (PD-1/PD-L1 interaction; [1]) was 0.033 µM and the IC50 (PD-1/PD-L1 interaction; [2]) was 0.033 µM.

For COc1cc(OCc2cccc(-c3ccccc3)c2C)cc(OC)c1CN1CCCCC1C(=O)O (stereo not shown) [Compound S7911], the IC50 (PD-1) is listed as 6 nM.

For CS(=O)(=O)c1cncc(COc2cc(OCc3cccc(-c4cccc(-c5ccc6c(c5)C[C@@H](N)C6)c4Cl)c3Cl)c(Br)cc2CN2CCCC[C@H]2C(=O)O)c1 [GS-4224, Example A], the KD/IC50 (PD-1/PD-L1) is given as 0.09 nM.

In the case of Cc1c(Nc2nc(C(F)F)nc3cc(CN4CC[C@](C)(O)C4)cnc23)cccc1-c1cccc(-c2nc3cc(CN4CCC(C(=O)O)CC4)cc(C#N)c3o2)c1C [INB086550], the KD/IC50 (PD-1/PD-L1) is listed as under 10 nM.
